These results are taken from PubChem BioAssay AID1188 (EPA DSSTox, 2008).

Activity calls are given as the source filed them.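 The calls were made as follows: active = a concentration killing half the fathead minnows in the acute test was determined; inconclusive = some fish died but not half at top dose; inactive = no fish died even at top dose.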

The data set relates to Fathead minnow (Pimephales promelas) acute toxicity, lethality. The data set can be described thus: DSSTox (EPAFHM) EPA Fathead Minnow Acute Toxicity. An excerpt: The EPA Fathead Minnow Acute Toxicity database was generated by the U.S. EPA Mid-Continental Ecology Division (MED) for the purpose of developing an expert system to predict acute toxicity from chemical structure based on mode of action considerations. […] A second valuable aspect of this database, from a QSAR modeling perspective, is the inclusion of general mode-of-action (MOA) classifications of acute toxicity response for individual chemicals derived from study results. MOA assignments are biologically based classifications, allowing definition of chemical similarity based upon biological activity instead of organic chemistry functional class as most commonly employed in QSAR study. MOA classifications should strengthen the scientific basis for construction of individual QSARs. However, it is cautioned that the broad MOA categorizations should not be construed to represent a single molecular mechanism; for example, CNS seizure agents and respiratory inhibitors are known to act through a variety of receptors. The EPA Fathead Minnow database and results have been used by EPA MED to build components of the ASTER prediction system, which incorporates MOA-based QSARs for the prediction of aquatic toxicity of environmental and industrial chemicals. Briefly, MOA classifications for individual chemicals, derived from experiments and provided in the EPA Fathead Minnow database, were used to derive substructural rules for assigning a new chemical to an MOA category based solely on chemical structure. Once a new chemical is assigned to an MOA category on this basis, the logP-based QSAR for that MOA category is applied.
The DSSTox EPAFHM database (available from the DSSTox Source URL) includes information pertaining to organic chemical class assignments (ChemClass_FHM), acute toxicity in fathead minnow (LC50_mg), dose-response assessments (LC50_Ratio, ExcessToxicityIndex), behavioral assessments (FishBehaviorTest), joint toxicity MOA evaluations of mixtures (MOA_MixtureTest), and additional MOA evaluation of fish acute toxicity syndrome (FishAcuteToxSyndrome) in rainbow trout. All of these indicators, to the extent available, were considered in the determination of MOA and, additionally, were used to determine a level of confidence in the MOA assignment for each chemical (MOA_Confidence). […] Activity Score is mapping of LOG10 (1/LC50_mmol) activity values spanning activity range [MIN, MAX] onto Integer 1-100 Activity range, where 100 is highest potency and 1 is lowest. If Activity Outcome is "active": Activity Score = 100 * INTEGER[(log10(1/ LC50_mmol) - MIN)/([…])].
For `CCOP(=S)(OCC)Oc1nc(Cl)c(Cl)cc1Cl`, the Potency is 0.907 µM. In the case of `O=c1cc(-c2ccccc2)oc2ccccc12`, the Potency is 15.7 µM. Still for that read-out and setting: the value for `CCCCC(=O)CCCC` was 218 µM; that for `Oc1ccc(Cl)cc1Cl` was 47.5 µM; that for `CCC(=O)O` was 49900 µM. On the same count and under the same terms, the figure for `Nc1ccc(Cl)c(Cl)c1` is 46.7 µM; for `CC1(N)CCC(C(C)(C)N)CC1` (stereo not drawn) it is 383 µM. Turning to `CO`, the outcome is “active; baseline narcosis”. Consider `O=C(O)C[n+]1ccccc1`, for which the Potency was 933 µM.

Regarding `CCCCCCBr`, the Potency was 20.9 µM. The same measure, in the same setting: the value for `CCOP(=S)(OCC)SCSc1ccc(Cl)cc1` was 0.7 µM. Take `O=[N+]([O-])c1ccc(Oc2ccc(Br)cc2)c([N+](=O)[O-])c1`: the outcome is “inactive; moa not determined either due to lack of toxicity at saturation or late test res”.

On to `CC1(C)[C@@H]2CC[C@@]1(C)C(=O)[C@H]2Br`, for which the Potency is 296 µM.

For the molecule `CC(C)(C)SC(C)(C)C`, the Potency is 199 µM.

Consider `COC(=O)c1ccc(C(=O)OC)c([N+](=O)[O-])c1`, for which the Potency is 27.3 µM. The same measure, in the same setting: the value for `C=CC=O` was 0.303 µM. For the molecule `COP(=S)(OC)SCn1nnc2ccccc2c1=O`, the Potency was 0.202 µM. As for `Cc1cc(O)ccc1Cl`, the Potency is 38.4 µM.

As for `CCc1cccc(CC)c1N(COC)C(=O)CCl`, the Potency was 18.5 µM. Same read-out and setting: the value for `O[C@@H]1CCCC[C@H]1c1ccccc1` was 252 µM. As for `CCCO`, the Potency was 75700 µM.

For the molecule `Cc1ccc(O)cc1`, the Potency was 153 µM. With `CCCCCCOc1ccc(N)cc1`, the Potency was 15.6 µM.

Turning to `CCCC(C)C1(CC)C(=O)N=C(S)NC1=O` (stereo not drawn), the Potency is 99.1 µM. Take `ClCCCl`: the Potency was 1370 µM. Regarding `NC(=O)c1ccccc1`, the Potency was 5460 µM. On the same count and under the same terms, the value for `CC(C)(C)CC(C)(C)N` was 190 µM; that for `CCCCCCCCCCCCN` was 0.556 µM; that for `CCC(=O)c1ccc(N)cc1` was 979 µM.

Consider `CC#CCO`, for which the Potency is 144 µM.

For the molecule `Oc1ccc(Oc2ccccc2)cc1`, the Potency is 26.6 µM. As to `O=[N+]([O-])c1ccc(Oc2ccccc2)cc1`, the Potency was 12.3 µM. Same read-out and setting: the value for `ClC(Cl)C(Cl)(Cl)Cl` was 37.2 µM; that for `C1C2CC3CC1CC(C2)C3` was 2.06 µM; that for `ClC(Cl)Cl` was 592 µM. On to `Cc1cc2nc3c(=O)[nH]c(=O)nc-3n(C[C@H](O)[C@H](O)[C@H](O)CO)c2cc1C`, for which the outcome was “inactive; moa not determined either due to lack of toxicity at saturation or late test res”. In the case of `C#CC1(O)CCCCC1`, the Potency is 2060 µM. On the same count and under the same terms, the value for `CC(N)Cc1ccccc1` (stereo not drawn) was 78.2 µM.

Regarding `OCCN1CCOCC1`, the Potency was 20700 µM. Same read-out and setting: the figure for `Nc1ccc(O)c([N+](=O)[O-])c1` is 235 µM; for `O=Cc1cccnc1` it is 153 µM.

With `NCCc1ccccn1`, the outcome is “inactive; moa not determined either due to lack of toxicity at saturation or late test res”. Regarding `CC(Cl)CCl` (stereo not drawn), the Potency is 1120 µM. For the molecule `O=C(c1ccccc1)c1ccccc1`, the Potency is 80.7 µM. As for `c1ccc(CN2CCNCC2)cc1`, the Potency is 269 µM. Turning to `c1ccc2ccccc2c1`, the Potency was 47.9 µM. The same measure, in the same setting: the figure for `OC(C(F)(F)F)C(F)(F)F` is 1450 µM. Still for that read-out and setting: the value for `CCCC(C)C1(CC)C(=O)N=C(O)NC1=O` (stereo not drawn) was 199 µM; that for `C=C(C)C(=O)OCc1ccccc1` was 26.5 µM; that for `CCOP(=S)(OCC)Oc1ccc(S(C)=O)cc1` (stereo not drawn) was 140 µM.

For the molecule `Nc1c(F)c(F)c(F)c(F)c1F`, the Potency was 203 µM.

Regarding `C=C(C)C(=O)OCCO`, the Potency was 1740 µM.

Take `CCOP(=O)(Cc1ccccc1)OCC`: the Potency was 1470 µM. As for `COc1cccc(OC)c1C`, the Potency was 133 µM.

Regarding `CCOC(N)=O`, the Potency was 58800 µM.

`N#Cc1ccccc1C(F)(F)F`: the Potency is 247 µM. On the same count and under the same terms, the figure for `O=C(Nc1ccccc1)c1ccccc1O` is 18.5 µM; for `CCOC(=O)c1ccccc1C(=O)OCC` it is 143 µM; for `CC(C)c1ccccc1` it is 52.6 µM. On to `NCCCN1CCN(CCCN)CC1`, for which the Potency was 15500 µM.

In the case of `Cc1ccc(N)c(Cl)c1`, the Potency was 254 µM.

Turning to `CCCCCCCCOC(=O)c1cccc(C(=O)OCCCCCCCC)c1`, the outcome was “inactive; moa not determined either due to lack of toxicity at saturation or late test res”. Regarding `C=CC(O)CCC` (stereo not drawn), the Potency was 304 µM. Regarding `CC(C)C(C(=O)OC(C#N)c1cccc(Oc2ccccc2)c1)c1ccc(Cl)cc1` (stereo not drawn), the Potency was 0.0121 µM.

With `O=[N+]([O-])c1ccccc1O`, the Potency was 1150 µM. For the molecule `CC(C)(O)C(F)(F)C(F)F`, the Potency is 3640 µM. `Cc1ccccn1`: the Potency was 9630 µM. Regarding `CC/C=C/CCO`, the Potency is 2710 µM. For the molecule `C=Cc1ccc(C(C)(C)C)cc1`, the Potency was 3.06 µM. With `Cc1cc(C)c(C#N)c(=O)[nH]1`, the Potency was 1060 µM. Take `CCC(=O)CC`: the Potency was 17900 µM. Turning to `NC(=O)c1ccccc1O`, the Potency was 736 µM.

In the case of `CC(=O)Nc1ccc(O)cc1`, the Potency is 5390 µM. Turning to `Cc1ccc(C)cc1`, the Potency was 83.5 µM. Still for that read-out and setting: the value for `CCCCc1ccc(N)cc1` was 68 µM; that for `CN(C)c1ccccn1` was 1040 µM. The same measure, in the same setting: the figure for `Cc1cccc(Cl)c1C#N` is 99.6 µM; for `CCCCCCCBr` it is 8.21 µM. The same measure, in the same setting: the value for `Nc1ccc([N+](=O)[O-])cc1` was 905 µM; that for `CC/C(C)=N/O` was 9680 µM; that for `N#CCCCCCCC#N` was 3880 µM.

`N#CCC#N`: the Potency was 8.48 µM. The same measure, in the same setting: the value for `COC(=O)c1ccc([N+](=O)[O-])cc1` was 131 µM.

On to `Fc1ccc(Oc2ccc(F)cc2)cc1`, for which the Potency is 5.48 µM. Take `CCCCCCCCC(C)=O`: the Potency was 30.9 µM.

Turning to `CCCC(C)C=O` (stereo not drawn), the Potency is 188 µM. The same measure, in the same setting: the value for `CC(C)SSC(C)C` was 55.3 µM; that for `CC(N)CN` (stereo not drawn) was 13600 µM; that for `OCC(Br)CBr` (stereo not drawn) was 326 µM. The same measure, in the same setting: the value for `CCCCCCCCCCCN` was 1.23 µM; that for `Cc1cocn1` was 16700 µM. For the molecule `CNC(=O)Oc1ccccc1OC(C)C`, the Potency is 42.1 µM. For the molecule `CCOc1ccc(N)c([N+](=O)[O-])c1`, the Potency is 143 µM. Same read-out and setting: the value for `CC(C)=CC1C(C(=O)OCc2coc(Cc3ccccc3)c2)C1(C)C` (stereo not drawn) was 0.0182 µM; that for `O=Cc1c(F)c(F)c(F)c(F)c1F` was 5.61 µM; that for `CC(=O)c1ccc(Cl)cc1Cl` was 68.9 µM.

On to `CCN(CC)c1ccc(C=O)c(O)c1`, for which the Potency was 27.7 µM. The same measure, in the same setting: the figure for `CN(C)c1ccccc1` is 529 µM. For `C=CC(C)(O)CC/C=C(\C)CCC=C(C)C` (stereo not drawn), the Potency is 6.43 µM. Same read-out and setting: the value for `Clc1nc(Cl)c(Cl)c(Cl)c1Cl` was 1.87 µM.

Turning to `CCCCCCCCOC(=O)c1ccccc1C(=O)OCCCCCCCC`, the outcome is “inactive; moa not determined either due to lack of toxicity at saturation or late test res”.

On to `CCN(CC)C(=O)c1cccc(C)c1`, for which the Potency was 575 µM. The same measure, in the same setting: the value for `CC(C)=O` was 123000 µM.

With `CCC1(c2ccccc2)C(=O)NC(=O)NC1=O`, the Potency was 2080 µM. Turning to `CC(=O)Nc1cccc(O)c1`, the Potency is 7480 µM. Same read-out and setting: the figure for `CC(O)CCl` (stereo not drawn) is 2590 µM; for `CCOP(=S)(Oc1ccc([N+](=O)[O-])cc1)c1ccccc1` (stereo not drawn) it is 0.243 µM; for `CCC(C)(C)c1ccc(O)cc1` it is 15.8 µM. Consider `COc1ccc(OC)c(C(=O)CBr)c1`, for which the Potency was 2.55 µM. On the same count and under the same terms, the figure for `ClC(Cl)(Cl)C(Cl)(Cl)Cl` is 6 µM; for `c1ccc(Oc2ccccc2)cc1` it is 23.5 µM; for `C=C(C)C(=O)OC(C)C` it is 296 µM.

As to `CCCN(CCC)CCC`, the Potency is 355 µM.

As for `C=C(C)C(=C)C`, the Potency was 84.1 µM.

On to `C=CC(Cl)CCl` (stereo not drawn), for which the Potency is 65.4 µM. Still for that read-out and setting: the figure for `CCCCCCOC(C)=O` is 30.5 µM; for `O=C(Oc1ccccc1)c1ccccc1C(=O)Oc1ccccc1` it is 0.251 µM.

As to `C1COCCO1`, the Potency is 117000 µM. Same read-out and setting: the figure for `c1ccncc1` is 1260 µM; for `CCOC(=O)N(C(=O)OCC)C(=O)OCC` it is 57 µM. Turning to `CNc1ccccc1`, the Potency was 933 µM. Still for that read-out and setting: the figure for `Oc1ccc(Cl)cc1` is 47.5 µM. The same measure, in the same setting: the value for `CCOCC` was 34500 µM.
